In patent US11629171B2, “Beta-hairpin peptidomimetics” (POLYPHOR AG, priority 2017, dated 2023):
Values after ≈ are worked out from the molar mass of the structure shown. Where a SMILES comes first, the peptide text is derived from it. Bridges are numbered along the chain shown (N, C = ends). Roman numbers before positions name the chains, in order. [ ]: non-standard residue; d: D form. The star is where a group is joined. Heptanoyl(6-Me) = CC(C)CCCCC(=O)*; Thr(ol) = C[C@@H](O)[C@H](N)CO; Tle = CC(C)(C)[C@H](N)C(=O)O; Hiv = CC(C)[C@H](O)C(=O)O; dDab = NCC[C@@H](N)C(=O)O; hSer = N[C@@H](CCO)C(=O)O; NHCH(CH2OH)2 = OCC(CO)N*; Orn = NCCC[C@H](N)C(=O)O; Dab = NCC[C@H](N)C(=O)O; Dap = NC[C@H](N)C(=O)O; Mpa = O=C(O)CCS

How the values were obtained:
Type in all cases: cell-based
[1] = test system: human red blood cells (hRBC); assay: Hemolysis; settings: red cells of human, 1 h, 200
How it was run: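 Percent lysis of human red cells was derived from OD540 of the supernatant, referenced to 2% Triton X-100, after a 1 h, 37° C incubation of 20% (v/v) cells with 200 μg/mL peptide.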

[2] = test system: Pseudomonas aeruginosa ATCC 27853; settings: ATCC 27853
How it was run: (§1)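 Broth microdilution per CLSI; MH-II (cation-adjusted) + 0.002% P-80 final; ~10^6 CFU/mL inoculum; 2-fold peptide series; 35° C, 18-20 h; MIC = no visible growth, μg/mL.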

Escherichia coli 926415 = settings: 926415
How it was run: as §1

[3] = test system: Klebsiella pneumoniae SSI #3010; settings: SSI #3010
How it was run: as §1

[4] = test system: Acinetobacter baumannii 872842; settings: 872842
How it was run: as §1

[5] = test system: Acinetobacter baumannii DSM 30008; settings: DSM 30008
How it was run: as §1

[6] = test system: Klebsiella pneumoniae 968733; settings: 968733
How it was run: as §1

[7] = test system: Escherichia coli ATCC 25922; settings: ATCC 25922
How it was run: as §1

[8] = test system: Enterobacter cloacae 848840; settings: 848840
How it was run: as §1

CC(=O)N[C@H](C(=O)N[C@H]1CCCNC(=O)C[C@@H](C(=O)N[C@@H](CO)C(N)=O)NC(=O)[C@H](C(C)C)NC(=O)[C@H](CO)NC(=O)[C@H](Cc2c[nH]c3ccccc23)NC(=O)[C@H](CO)NC(=O)[C@@H](CCN)NC(=O)[C@H](CCC(=O)N[C@@H](CCN)C(=O)N[C@H](C(=O)N[C@@H](CN)C(=O)N[C@H]2CCNC(=O)[C@H]([C@@H](C)O)NC(=O)[C@H](CCN)NC(=O)[C@H](CCN)NC(=O)[C@H](CC(C)C)NC(=O)[C@@H](CC(C)C)NC(=O)[C@H](CCN)NC2=O)[C@@H](C)O)NC(=O)[C@H](CCN)NC(=O)[C@H](Cc2ccc(O)cc2)NC1=O)C(C)C [Ex. 319] (I: Ac-V[Orn]Y[Dab]E[dDab]SWSVDS-NH2 / II: [Dab]T[Dap][Dab][Dab][dL]L[Dab][Dab]T; lactam I:2-I:11, II:4-II:C; amide I:5-II:N)
Hemolysis at 200 μg/mL [1]: <1% | Pseudomonas aeruginosa ATCC 27853 MIC [2]: 0.125 µg/mL | MIC (Escherichia coli 926415): 1 µg/mL (≈ 0.416 µM) | Klebsiella pneumoniae SSI #3010 MIC [3]: 0.25 µg/mL | MIC [4]: 0.5 µg/mL (≈ 0.208 µM) | Acinetobacter baumannii DSM 30008 MIC [5]: 0.125 µg/mL | MIC [6]: 4 µg/mL (≈ 1.66 µM) | Escherichia coli ATCC 25922 MIC [7]: 0.0625 µg/mL | MIC [8]: 1 µg/mL (≈ 0.416 µM)

CC(C)CCCCC(=O)N[C@H](C(=O)N[C@H]1CSSC[C@@H](C(=O)N[C@@H](CO)C(N)=O)NC(=O)[C@H](C(C)C)NC(=O)[C@H](CCO)NC(=O)[C@H](Cc2c[nH]c3ccccc23)NC(=O)[C@H](CCO)NC(=O)[C@@H](CCN)NC(=O)[C@H](CCC(=O)N[C@@H](CCN)C(=O)N[C@H](C(=O)N[C@@H](CCN)C(=O)N[C@H]2CCNC(=O)[C@H]([C@@H](C)O)NC(=O)[C@H](CCN)NC(=O)[C@H](CCN)NC(=O)[C@H](CC(C)C)NC(=O)[C@@H](CC(C)C)NC(=O)[C@H](CCN)NC2=O)[C@@H](C)O)NC(=O)[C@H](CCN)NC(=O)[C@H](Cc2ccc(O)cc2)NC1=O)C(C)C [Ex. 40] (I: {Heptanoyl(6-Me)}-VCY[Dab]E[dDab][hSer]W[hSer]VCS-NH2 / II: [Dab]T[Dab][Dab][Dab][dL]L[Dab][Dab]T; disulfide I:2-I:11; amide I:5-II:N; lactam II:4-II:C)
Hemolysis at 200 μg/mL [1]: 2% | MIC [2]: 0.25 µg/mL (≈ 0.099 µM) | MIC (Escherichia coli 926415): 1 µg/mL (≈ 0.396 µM) | MIC [3]: 0.5 µg/mL (≈ 0.198 µM) | MIC [4]: 0.5 µg/mL (≈ 0.198 µM) | MIC [5]: 1 µg/mL (≈ 0.396 µM) | MIC [6]: 0.25 µg/mL (≈ 0.099 µM) | MIC [7]: 0.125 µg/mL (≈ 0.0495 µM) | MIC [8]: 0.5 µg/mL (≈ 0.198 µM)

CC(C)C[C@@H]1NC(=O)[C@@H](CC(C)C)NC(=O)[C@H](CCN)NC(=O)[C@@H](NC(=O)[C@H](CN)NC(=O)[C@@H](NC(=O)[C@H](CCN)NC(=O)CC[C@@H]2NC(=O)[C@@H](NC(=O)[C@H](Cc3ccc(O)cc3)NC(=O)[C@@H](NC(=O)[C@@H](O)C(C)C)[C@@H](C)O)CSSC[C@@H](C(=O)N[C@H](C(=O)N[C@@H](C)C(=O)NC(CO)CO)C(C)(C)C)NC(=O)[C@H](Cc3c[nH]c4ccccc34)NC(=O)[C@H](CO)NC(=O)[C@@H](CCN)NC2=O)[C@@H](C)O)CCNC(=O)[C@H]([C@@H](C)O)NC(=O)[C@H](CCN)NC(=O)[C@H](CCN)NC1=O [Ex. 197] (I: H-[Hiv]TYCE[dDab]SWC[Tle]A-{NHCH(CH2OH)2} / II: [Dab]T[Dap][Dab][Dab][dL]L[Dab][Dab]T; disulfide I:4-I:9; amide I:5-II:N; lactam II:4-II:C)
Hemolysis at 200 μg/mL [1]: <1% | MIC [2]: 0.125 µg/mL (≈ 0.0533 µM) | MIC (Escherichia coli 926415): 0.5 µg/mL (≈ 0.213 µM) | MIC [3]: 0.125 µg/mL (≈ 0.0533 µM) | MIC [4]: 0.25 µg/mL (≈ 0.107 µM) | MIC [5]: 0.0625 µg/mL (≈ 0.0267 µM) | MIC [6]: 0.5 µg/mL (≈ 0.213 µM) | MIC [7]: 0.0625 µg/mL (≈ 0.0267 µM) | MIC [8]: 0.25 µg/mL (≈ 0.107 µM)

CC(=O)N[C@@H](C(=O)N[C@H]1CSSC[C@@H](C(=O)N[C@H](CO)[C@@H](C)O)NC(=O)[C@H](C(C)(C)C)NC(=O)[C@H](CO)NC(=O)[C@H](Cc2c[nH]c3ccccc23)NC(=O)[C@H](CCO)NC(=O)[C@@H](CCN)NC(=O)[C@H](CCC(=O)N[C@@H](CCN)C(=O)N[C@H](C(=O)N[C@@H](CCN)C(=O)N[C@H]2CCNC(=O)[C@H]([C@@H](C)O)NC(=O)[C@H](CCN)NC(=O)[C@H](CCN)NC(=O)[C@H](CC(C)C)NC(=O)[C@@H](CC(C)C)NC(=O)[C@H](CCN)NC2=O)[C@@H](C)O)NC(=O)[C@H](CCN)NC(=O)[C@H](Cc2ccc(O)cc2)NC1=O)C(C)C [Ex. 86] (I: Ac-[dV]CY[Dab]E[dDab][hSer]WS[Tle]C[Thr(ol)] / II: [Dab]T[Dab][Dab][Dab][dL]L[Dab][Dab]T; disulfide I:2-I:11; amide I:5-II:N; lactam II:4-II:C)
Hemolysis at 200 μg/mL [1]: <1% | MIC [2]: 0.125 µg/mL (≈ 0.0512 µM) | MIC (Escherichia coli 926415): 0.25 µg/mL (≈ 0.102 µM) | MIC [3]: 0.125 µg/mL (≈ 0.0512 µM) | MIC [4]: 0.25 µg/mL (≈ 0.102 µM) | MIC [5]: 0.0625 µg/mL (≈ 0.0256 µM) | MIC [6]: 0.125 µg/mL (≈ 0.0512 µM) | MIC [7]: 0.125 µg/mL (≈ 0.0512 µM) | MIC [8]: 1 µg/mL (≈ 0.41 µM)

CC(=O)N[C@H](C(=O)N[C@H]1CSSC[C@@H](C(=O)N[C@@H](CO)C(N)=O)NC(=O)[C@H](Cc2ccc(O)cc2)NC(=O)[C@H](CO)NC(=O)[C@H](Cc2c[nH]c3ccccc23)NC(=O)[C@H](CCO)NC(=O)[C@@H](CCN)NC(=O)[C@H](CCC(=O)N[C@@H](CCN)C(=O)N[C@H](C(=O)N[C@@H](CCN)C(=O)N[C@H]2CCNC(=O)[C@H]([C@@H](C)O)NC(=O)[C@H](CCN)NC(=O)[C@H](CCN)NC(=O)[C@H](CC(C)C)NC(=O)[C@@H](CC(C)C)NC(=O)[C@H](CCN)NC2=O)[C@@H](C)O)NC(=O)[C@H](CCN)NC(=O)[C@H](C(C)C)NC1=O)C(C)C [Ex. 64] (I: Ac-VCV[Dab]E[dDab][hSer]WSYCS-NH2 / II: [Dab]T[Dab][Dab][Dab][dL]L[Dab][Dab]T; disulfide I:2-I:11; amide I:5-II:N; lactam II:4-II:C)
Hemolysis at 200 μg/mL [1]: <1% | MIC [2]: 0.125 µg/mL (≈ 0.0515 µM) | MIC (Escherichia coli 926415): 0.5 µg/mL (≈ 0.206 µM) | MIC [3]: 0.125 µg/mL (≈ 0.0515 µM) | MIC [4]: 0.5 µg/mL (≈ 0.206 µM) | MIC [5]: 0.0625 µg/mL (≈ 0.0258 µM) | MIC [6]: 1 µg/mL (≈ 0.412 µM) | MIC [7]: 0.125 µg/mL (≈ 0.0515 µM) | MIC [8]: 4 µg/mL (≈ 1.65 µM)

CC(=O)N[C@H](C(=O)N[C@H]1CCNC(=O)CC[C@@H](C(=O)N[C@@H](CO)C(N)=O)NC(=O)[C@H](C(C)C)NC(=O)[C@H](CO)NC(=O)[C@H](Cc2c[nH]c3ccccc23)NC(=O)[C@H](CO)NC(=O)[C@@H](CCN)NC(=O)[C@H](CCC(=O)N[C@@H](CCN)C(=O)N[C@H](C(=O)N[C@@H](CCN)C(=O)N[C@H]2CCNC(=O)[C@H]([C@@H](C)O)NC(=O)[C@H](CCN)NC(=O)[C@H](CCN)NC(=O)[C@H](CC(C)C)NC(=O)[C@@H](CC(C)C)NC(=O)[C@H](CCN)NC2=O)[C@@H](C)O)NC(=O)[C@H](CCN)NC(=O)[C@H](Cc2ccc(O)cc2)NC1=O)C(C)C [Ex. 321] (I: Ac-V[Dab]Y[Dab]E[dDab]SWSVES-NH2 / II: [Dab]T[Dab][Dab][Dab][dL]L[Dab][Dab]T; lactam I:2-I:11, II:4-II:C; amide I:5-II:N)
Hemolysis at 200 μg/mL [1]: 0% | Pseudomonas aeruginosa ATCC 27853 MIC [2]: 0.125 µg/mL | MIC (Escherichia coli 926415): 0.5 µg/mL (≈ 0.207 µM) | Klebsiella pneumoniae SSI #3010 MIC [3]: 0.125 µg/mL | MIC [4]: 0.25 µg/mL (≈ 0.103 µM) | Acinetobacter baumannii DSM 30008 MIC [5]: 0.125 µg/mL | MIC [6]: 1 µg/mL (≈ 0.413 µM) | Escherichia coli ATCC 25922 MIC [7]: 0.0625 µg/mL | MIC [8]: 0.25 µg/mL (≈ 0.103 µM)

CC(C)C[C@@H]1NC(=O)[C@@H](CC(C)C)NC(=O)[C@H](CCN)NC(=O)[C@@H](NC(=O)[C@H](CN)NC(=O)[C@@H](NC(=O)[C@H](CCN)NC(=O)CC[C@@H]2NC(=O)[C@H](CO)NC(=O)[C@H](Cc3ccc(O)cc3)NC(=O)[C@H]([C@@H](C)O)NC(=O)[C@H](C(C)C)NC(=O)CCSSC[C@@H](C(N)=O)NC(=O)[C@H]([C@@H](C)O)NC(=O)[C@H](C)NC(=O)[C@H](C(C)(C)C)NC(=O)[C@H](CCC(=O)O)NC(=O)[C@H](Cc3c[nH]c4ccccc34)NC(=O)[C@H](CCN)NC(=O)[C@@H](CCN)NC2=O)[C@@H](C)O)CCNC(=O)[C@H]([C@@H](C)O)NC(=O)[C@H](CCN)NC(=O)[C@H](CCN)NC1=O [Ex. 250] (I: [Mpa]VTYSE[dDab][Dab]WE[Tle]ATC-NH2 / II: [Dab]T[Dap][Dab][Dab][dL]L[Dab][Dab]T; disulfide I:1-I:14; amide I:6-II:N; lactam II:4-II:C)
Hemolysis at 200 μg/mL [1]: 1% | MIC [2]: 0.125 µg/mL (≈ 0.0484 µM) | MIC (Escherichia coli 926415): 0.0625 µg/mL (≈ 0.0242 µM) | MIC [3]: 0.0625 µg/mL (≈ 0.0242 µM) | MIC [4]: 0.03125 µg/mL (≈ 0.0121 µM) | MIC [5]: 0.03125 µg/mL (≈ 0.0121 µM) | MIC [6]: 0.125 µg/mL (≈ 0.0484 µM) | MIC [7]: 0.03125 µg/mL (≈ 0.0121 µM) | MIC [8]: 0.0625 µg/mL (≈ 0.0242 µM)
